Experimental data as given in patent US8597660B2, “Therapeutic approach to neurodegenerative disorders using a TFP5-peptide” (The United States of America, as represented by the …, priority 2010, dated 2013).
“Also recorded” adds a separate entry of the source.

Columns and labels:
[1] = tested on: Cdc2, Cdk2, Cdk4, and Cdk6; assay: Kinase assay of cell cycle Cdk immunoprecipitates from HEK293 cells infected with P5-myc or treated with roscovitine; assay type: cell-based, human; settings: HEK293 cells infected with P5-myc or treated with 20 μM roscovitine
Procedure: (§1) Briefly, 7 days in culture (7 DIC) primary rat cortical neurons were infected with P25, P35, Cdk5 wild-type, dominant negative-Cdk5 and P5 using the lentiviral gene delivery as described earlier. Cdk5 was immunoprecipitated using the polyclonal C8 antibody overnight at 4° C. and immunoglobulin isolated using Protein A sepharose beads for 2 hours at 4° C. Immunoprecipitates were washed three times with lysis buffer and then once with 1× kinase buffer containing 20 mM Tris-Cl pH 7.4, 1 mM EDTA, 1 mM EGTA, 10 mM MgCl2, 10 mM sodium fluoride and 1 mM sodium orthovanadate. Endogenous Cdks were immunoprecipitated from HEK 293 cells using their respective antibodies and treated as above. […] ATP with 20 μg of histone H1 as the substrate. Phosphorylation was performed in a final volume of […] incubated at 30° C. for 60 minutes, stopped by the addition of 10% SDS sample buffer and heating at 95° C. for 5 minutes. Samples were separated by SDS-PAGE, gels were stained with Coomassie, destained, dried and exposed to autoradiography. In pad assays, 25 μl aliquots of the incubation mixture were placed on a Whatman p80 paper square, washed and dried and placed in a scintillation vial for counting.

[2] = tested on: Cdc2, Cdk2, Cdk4, and Cdk6; assay: Kinase pad assay on Cdk immunoprecipitates of untreated HEK293 lysates with added P5 peptide; assay type: biochemical, human; settings: P5 peptide up to 1.8 μM; roscovitine 20 μM
Procedure: as §1

cleaved caspase-3 = assay: Cleaved caspase-3 Western blot in Aβ-treated cortical neurons; assay type: cell-based, rat; settings: Aβ 6 h; P5 infection or roscovitine
Procedure: (§2) Western blot analysis was performed as previously described (Zheng et al., Eur J Biochem 269(18), 4427-4434, 2002). In brief, an equal amount of total protein (20 μg/lane) was resolved on a 4-20% SDS polyacrylamide gel and blotted onto a polyvinylidene difluoride membrane. This membrane was incubated in blocking buffer containing 20 mM Tris-HCl (pH 7.4), 150 mM NaCl, and 0.1% (vol/vol) Tween 20 (TTBS) plus 5% dry milk (w/v) for 1 hour at room temperature followed by incubation overnight at 4° C. in primary antibodies (see antibodies). The membranes were then washed four times in TTBS (5 minutes/each) followed by incubation in secondary antibody (goat-antimouse or goat anti-rabbit IgG (H+L)-horseradish peroxidase (HRP) conjugate at a dilution of 1:3000) for 1 hour at room temperature. Western blots were analyzed using the Amersham Enhanced Chemiluminescence (ECL) kit following the manufacturer's instructions (GE Healthcare, Piscataway, N.J.).
To determine whether P5 inhibited neuronal apoptosis induced by Aβ, primary cortical neurons (5 days in culture (DIC)) were transfected with P5-GFP using Lipofectamine 2000. After 24 hours, cells were exposed to Aβ for 6 hours. The neurons were fixed and subjected to TUNEL staining, while P5 was visualized by (green fluorescent protein) GFP. […] The data are quantified in FIG. 5B. […] The data are quantified in FIG. 5D.

tau phosphorylation = assay: Aβ-induced tau phosphorylation in cortical neurons, Western blot; assay type: cell-based, rat; settings: Aβ 6 h
Procedure: Primary cultures of rat cortical neurons were prepared from E-18 rat fetuses as described previously (Zheng et al., J Biol Chem 278(26), 24026-24032, 2003). After 7 days, cells were infected independently or co-infected with empty vector (EV), the constructs of P5, P25, P35, wild-type Cdk5 and dominant negative Cdk5 (changing Lys33 to Thr33) using the Adenoviral vector (pAdTrack-CMV) packaging system as described above. […] The cells were fixed for immunocytochemistry analyses (ICC) or lysed with lysis buffer for immunoprecipitation and Western blot analyses. Cortical neuron cultures were prepared and plated on the cover slips as described. Human embryo kidney cells (HEK293) were grown as described previously (Zheng et al., Eur J Biochem 269(18), 4427-4434, 2002). In these studies HEK293 cells on day 1, or neurons on day 5, were transfected with or without Myc-P5-GFP using Lipofectamine 2000 following the manufacturer's instructions.
as §2
Amyloid plaques and neurofibrillary tangles, pathological hallmarks of several neurodegenerative disorders, are linked to deregulated Cdk5 and neuronal death. According to one model, β amyloid, being toxic, may evoke abnormal calcium influx into neurons which activates calpains. […] Hyperactivation of Cdk5, leads to the aberrant phosphorylation of tau and neurofilaments in a number of neurodegenerative diseases including AD and ALS. For example, primary cortical neurons, when treated with Aβ1-42 are induced to form Cdk5/P25 complexes, hyperactive Cdk5 activity, hyperphosphorylation of tau, and neuronal apoptosis. To determine whether P5 will inhibit endogenous tau phosphorylation induced by Aβ treatment in cortical neurons, 7 day old cortical neurons, infected with empty vector (EV) or with P5 were treated with Aβ for 6 hours, lysed and prepared for Cdk5 immunoprecipitation and kinase assay. Aβ treatment causes an approximate 3-fold increase in endogenous Cdk5 activity as visualized by histone H1 phosphorylation (FIG. 4A, panel 5, lane 2; FIG. 4B).
; FIG. 4D). […] Tau antibodies p-Ser404, PHF antibody AT180 (recognizes p-Thr231) and p-Ser422 antibodies were used to observe whether P5 affects other tau phosphorylation residues (FIGS. 4E, 4F). […]. Tau 5 recognizes total tau, nonphosphorylated as well as phosphorylated.

P5: 24 residue peptide derived from Cdk5 activator P35 (K254-A277 of SEQ ID NO: 16); Cdk5 inhibitory peptide (KEAFWDRCLSVINLMSSKMLQINA; listed as Homo sapiens)
Inhibition of endogenous cell cycle Cdk activity [1]: virtually no effect; also recorded: no inhibition in all cases; also recorded: unaffected by P5 | Inhibition of cell cycle Cdk activities in vitro [2]: virtually no inhibition; also recorded: minimal inhibition of Cdc2 and Cdk4 activities | Cleaved caspase-3 expression (cleaved caspase-3): marked reduction in cleaved caspase 3 expression; also recorded: reduced to control EV levels; also recorded: significantly rescued cortical neurons from apoptosis | Aβ-induced tau phosphorylation at Ser404 (tau phosphorylation; P5 infection): reduces phosphorylation at Thr 231 and Ser404; also recorded: significantly inhibits tau phosphorylation at S404 and T231 | Aβ-induced tau phosphorylation at Thr231 (AT180) (tau phosphorylation; P5 infection): reduces phosphorylation at Thr 231 and Ser404; also recorded: significantly inhibits tau phosphorylation at S404 and T231 | Aβ-induced tau phosphorylation at Ser422 (tau phosphorylation; P5 infection or roscovitine): only a modest affect on Ser 422; also recorded: slight decrease of tau phosphorylation at the Ser422 site, is not significant | Aβ-induced tau phosphorylation detected by AT8 and p-Ser199/202 antibodies (tau phosphorylation; P5 infection or roscovitine): baseline levels of tau phosphorylation; also recorded: restoring it to basal levels
